Results as given in US20070049564A1 (Wyeth, priority 2005, published 2007).
Values after ≈ are worked out from the molar mass of the structure shown. Where two headings read alike, the source gives them in different places.

What was measured:
E. coli GC 2231 = assay: MIC, broth microdilution; settings: Escherichia coli
E. coli GC 2232 = assay: MIC, broth microdilution; settings: Escherichia coli
E. coli GC 2272 = assay: MIC, broth microdilution; settings: Escherichia coli
E. coli GC 4560 = assay: MIC, broth microdilution; settings: Escherichia coli
E. coli GC 6465 = assay: MIC, broth microdilution; settings: Escherichia coli
Method: (§1) Antimicrobial susceptibility testing. The in vitro activities of the antibiotics are determined by the broth microdilution method as recommended by the National Committee for Clinical Laboratory Standards (NCCLS) (1). Mueller-Hinton II broth (MHBII)(BBL Cockeysville, Md.) is the medium employed in the testing procedures. Microtiter plates containing serial dilutions of each antimicrobial agent are inoculated with each organism to yield the appropriate density (10^5 CFU/ml) in a 100 μl final volume. The plates are incubated for 18-22 hours at 35° C. in ambient air.
(§2) Representative compounds were first incubated in mouse serum for an hour prior to the in vitro testing against a panel of selected gram-positive and gram-negative bacteria strains. All compounds were also pre-incubated in water for an hour prior to testing as control.

E. coli GC 3226 = assay: MIC, broth microdilution; settings: Escherichia coli
E. coli GC 2203 = assay: MIC, broth microdilution; settings: Escherichia coli
S. typhimurium GC 2172 = assay: MIC, broth microdilution; settings: Salmonella enterica, TYPHIMURIUM
Method: as §1, §2

S. aureus GC 6466 = assay: MIC, broth microdilution; settings: Staphylococcus aureus
S. aureus GC 6467 = assay: MIC, broth microdilution; settings: Staphylococcus aureus
S. aureus GC 4536 = assay: MIC, broth microdilution; settings: Staphylococcus aureus
S. aureus GC 6469 = assay: MIC, broth microdilution; settings: Staphylococcus aureus
E. faecalis GC 4555 = assay: MIC, broth microdilution; settings: Enterococcus faecalis
E. faecalis GC 2265 = assay: MIC, broth microdilution; settings: Enterococcus faecalis
E. faecalis GC 2267 = assay: MIC, broth microdilution; settings: Enterococcus faecalis
E. faecium GC 2243 = assay: MIC, broth microdilution; settings: Enterococcus faecium
S. pneumoniae* GC 4465 = assay: MIC, broth microdilution; settings: Streptococcus pneumoniae
Method: as §1
Representative compounds were first incubated in mouse serum for an hour prior to the in vitro testing against a panel of selected gram-positive and gram-negative bacteria strains. All compounds were also pre-incubated in water for an hour prior to testing as control. Representative compounds of Formula I were incubated in human serum prior to MIC determination.

S. agalactiae GC 4564 = assay: MIC, broth microdilution; settings: Streptococcus agalactiae
E. coli = assay: Range of MIC for E. coli strains; settings: Escherichia coli
Staph. = assay: Range of MIC for Staph. strains, including MRSA; settings: Staphylococcus aureus
[1] = read-out: MINIMAL INHIBITORY CONCENTRATION MIC, pre-incubated in Human Serum
[2] = read-out: MINIMAL INHIBITORY CONCENTRATION MIC, pre-incubated in Mouse Serum
[3] = read-out: MINIMAL INHIBITORY CONCENTRATION MIC, pre-incubated in Water

## Cc1ccc(C(=O)OCOC(=O)N(CC(=O)Nc2cc(N(C)C)c3c(c2O)C(=O)C2=C(O)[C@]4(O)C(=O)C(C(N)=O)=C(O)[C@@H](N(C)C)[C@@H]4C[C@@H]2C3)C(C)(C)C)cc1 [Example 47]
E. coli GC 2231; GC2231, read-out: MINIMAL INHIBITORY CONCENTRATION MIC, pre-incubated in Human Serum
  MIC: 32 µg/mL (≈ 41.1 µM)
E. coli GC 2231; GC2231, read-out: MINIMAL INHIBITORY CONCENTRATION MIC, pre-incubated in Mouse Serum
  MIC: 1 µg/mL (≈ 1.29 µM)
E. coli GC 2231; GC2231, read-out: MINIMAL INHIBITORY CONCENTRATION MIC, pre-incubated in Water
  MIC: > 64 µg/mL
E. coli GC 2232; GC2232, read-out: MINIMAL INHIBITORY CONCENTRATION MIC, pre-incubated in Human Serum
  MIC: 16 µg/mL (≈ 20.6 µM)
E. coli GC 2232; GC2232, read-out: MINIMAL INHIBITORY CONCENTRATION MIC, pre-incubated in Mouse Serum
  MIC: 1 µg/mL (≈ 1.29 µM)
E. coli GC 2232; GC2232, read-out: MINIMAL INHIBITORY CONCENTRATION MIC, pre-incubated in Water
  MIC: > 64 µg/mL
E. coli GC 2272; GC2272, read-out: MINIMAL INHIBITORY CONCENTRATION MIC, pre-incubated in Human Serum
  MIC: 16 µg/mL (≈ 20.6 µM)
E. coli GC 2272; GC2272, read-out: MINIMAL INHIBITORY CONCENTRATION MIC, pre-incubated in Mouse Serum
  MIC: 1 µg/mL (≈ 1.29 µM)
E. coli GC 2272; GC2272, read-out: MINIMAL INHIBITORY CONCENTRATION MIC, pre-incubated in Water
  MIC: > 64 µg/mL
E. coli GC 4560; GC4560, read-out: MINIMAL INHIBITORY CONCENTRATION MIC, pre-incubated in Human Serum
  MIC: 4 µg/mL (≈ 5.14 µM)
E. coli GC 4560; GC4560, read-out: MINIMAL INHIBITORY CONCENTRATION MIC, pre-incubated in Mouse Serum
  MIC: 1 µg/mL (≈ 1.29 µM)
E. coli GC 4560; GC4560, read-out: MINIMAL INHIBITORY CONCENTRATION MIC, pre-incubated in Water
  MIC: 16 µg/mL (≈ 20.6 µM)
E. coli GC 6465; GC6465, read-out: MINIMAL INHIBITORY CONCENTRATION MIC, pre-incubated in Human Serum
  MIC: > 64 µg/mL
E. coli GC 6465; GC6465, read-out: MINIMAL INHIBITORY CONCENTRATION MIC, pre-incubated in Mouse Serum
  MIC: 2 µg/mL (≈ 2.57 µM)
E. coli GC 6465; GC6465, read-out: MINIMAL INHIBITORY CONCENTRATION MIC, pre-incubated in Water
  MIC: > 64 µg/mL
E. coli GC 3226; GC3226, read-out: MINIMAL INHIBITORY CONCENTRATION MIC, pre-incubated in Human Serum
  MIC: 32 µg/mL (≈ 41.1 µM)
E. coli GC 3226; GC3226, read-out: MINIMAL INHIBITORY CONCENTRATION MIC, pre-incubated in Mouse Serum
  MIC: 2 µg/mL (≈ 2.57 µM)
E. coli GC 3226; GC3226, read-out: MINIMAL INHIBITORY CONCENTRATION MIC, pre-incubated in Water
  MIC: > 64 µg/mL
E. coli GC 2203; GC2203, read-out: MINIMAL INHIBITORY CONCENTRATION MIC, pre-incubated in Human Serum
  MIC: 32 µg/mL (≈ 41.1 µM)
E. coli GC 2203; GC2203, read-out: MINIMAL INHIBITORY CONCENTRATION MIC, pre-incubated in Mouse Serum
  MIC: 1 µg/mL (≈ 1.29 µM)
E. coli GC 2203; GC2203, read-out: MINIMAL INHIBITORY CONCENTRATION MIC, pre-incubated in Water
  MIC: > 64 µg/mL
S. typhimurium GC 2172; [1]
  MIC: > 64 µg/mL
S. typhimurium GC 2172; [2]
  MIC: 4 µg/mL (≈ 5.14 µM)
S. typhimurium GC 2172; [3]
  MIC: > 64 µg/mL
S. aureus GC 6466; GC6466, read-out: MINIMAL INHIBITORY CONCENTRATION MIC, pre-incubated in Human Serum
  MIC: 1 µg/mL (≈ 1.29 µM)
S. aureus GC 6466; GC6466, read-out: MINIMAL INHIBITORY CONCENTRATION MIC, pre-incubated in Mouse Serum
  MIC: 1 µg/mL (≈ 1.29 µM)
S. aureus GC 6466; GC6466, read-out: MINIMAL INHIBITORY CONCENTRATION MIC, pre-incubated in Water
  MIC: 2 µg/mL (≈ 2.57 µM)
S. aureus GC 6467; GC6467, read-out: MINIMAL INHIBITORY CONCENTRATION MIC, pre-incubated in Human Serum
  MIC: 2 µg/mL (≈ 2.57 µM)
S. aureus GC 6467; GC6467, read-out: MINIMAL INHIBITORY CONCENTRATION MIC, pre-incubated in Mouse Serum
  MIC: 1 µg/mL (≈ 1.29 µM)
S. aureus GC 6467; GC6467, read-out: MINIMAL INHIBITORY CONCENTRATION MIC, pre-incubated in Water
  MIC: 4 µg/mL (≈ 5.14 µM)
S. aureus GC 4536; GC4536, read-out: MINIMAL INHIBITORY CONCENTRATION MIC, pre-incubated in Human Serum
  MIC: 1 µg/mL (≈ 1.29 µM)
S. aureus GC 4536; GC4536, read-out: MINIMAL INHIBITORY CONCENTRATION MIC, pre-incubated in Mouse Serum
  MIC: 1 µg/mL (≈ 1.29 µM)
S. aureus GC 4536; GC4536, read-out: MINIMAL INHIBITORY CONCENTRATION MIC, pre-incubated in Water
  MIC: 4 µg/mL (≈ 5.14 µM)
S. aureus GC 6469; GC6469, read-out: MINIMAL INHIBITORY CONCENTRATION MIC, pre-incubated in Human Serum
  MIC: 2 µg/mL (≈ 2.57 µM)
S. aureus GC 6469; GC6469, read-out: MINIMAL INHIBITORY CONCENTRATION MIC, pre-incubated in Mouse Serum
  MIC: 1 µg/mL (≈ 1.29 µM)
S. aureus GC 6469; GC6469, read-out: MINIMAL INHIBITORY CONCENTRATION MIC, pre-incubated in Water
  MIC: 4 µg/mL (≈ 5.14 µM)
E. faecalis GC 4555; GC4555, read-out: MINIMAL INHIBITORY CONCENTRATION MIC, pre-incubated in Human Serum
  MIC: 4 µg/mL (≈ 5.14 µM)
E. faecalis GC 4555; GC4555, read-out: MINIMAL INHIBITORY CONCENTRATION MIC, pre-incubated in Mouse Serum
  MIC: 1 µg/mL (≈ 1.29 µM)
E. faecalis GC 4555; GC4555, read-out: MINIMAL INHIBITORY CONCENTRATION MIC, pre-incubated in Water
  MIC: 4 µg/mL (≈ 5.14 µM)
E. faecalis GC 2265; GC2265, read-out: MINIMAL INHIBITORY CONCENTRATION MIC, pre-incubated in Human Serum
  MIC: 4 µg/mL (≈ 5.14 µM)
E. faecalis GC 2265; GC2265, read-out: MINIMAL INHIBITORY CONCENTRATION MIC, pre-incubated in Mouse Serum
  MIC: 1 µg/mL (≈ 1.29 µM)
E. faecalis GC 2265; GC2265, read-out: MINIMAL INHIBITORY CONCENTRATION MIC, pre-incubated in Water
  MIC: 4 µg/mL (≈ 5.14 µM)
E. faecalis GC 2267; GC2267, read-out: MINIMAL INHIBITORY CONCENTRATION MIC, pre-incubated in Human Serum
  MIC: 4 µg/mL (≈ 5.14 µM)
E. faecalis GC 2267; GC2267, read-out: MINIMAL INHIBITORY CONCENTRATION MIC, pre-incubated in Mouse Serum
  MIC: 1 µg/mL (≈ 1.29 µM)
E. faecalis GC 2267; GC2267, read-out: MINIMAL INHIBITORY CONCENTRATION MIC, pre-incubated in Water
  MIC: 4 µg/mL (≈ 5.14 µM)
E. faecium GC 2243; GC2243, read-out: MINIMAL INHIBITORY CONCENTRATION MIC, pre-incubated in Human Serum
  MIC: 2 µg/mL (≈ 2.57 µM)
E. faecium GC 2243; GC2243, read-out: MINIMAL INHIBITORY CONCENTRATION MIC, pre-incubated in Mouse Serum
  MIC: 0.5 µg/mL (≈ 0.643 µM)
E. faecium GC 2243; GC2243, read-out: MINIMAL INHIBITORY CONCENTRATION MIC, pre-incubated in Water
  MIC: 2 µg/mL (≈ 2.57 µM)
S. pneumoniae* GC 4465; [1]
  MIC: 0.5 µg/mL (≈ 0.643 µM)
S. pneumoniae* GC 4465; [2]
  MIC: 0.25 µg/mL (≈ 0.321 µM)
S. pneumoniae* GC 4465; [3]
  MIC: 0.5 µg/mL (≈ 0.643 µM)
S. agalactiae GC 4564; GC4564, read-out: MINIMAL INHIBITORY CONCENTRATION MIC, pre-incubated in Human Serum
  MIC: 1 µg/mL (≈ 1.29 µM)
S. agalactiae GC 4564; GC4564, read-out: MINIMAL INHIBITORY CONCENTRATION MIC, pre-incubated in Mouse Serum
  MIC: 0.5 µg/mL (≈ 0.643 µM)
S. agalactiae GC 4564; GC4564, read-out: MINIMAL INHIBITORY CONCENTRATION MIC, pre-incubated in Water
  MIC: 1 µg/mL (≈ 1.29 µM)
E. coli; 20 h, read-out: Range of MIC, E. coli (Mouse Serum)
  MIC: 0.5 to 2 µg/mL (≈ 0.643 to 2.57 µM)
E. coli; read-out: Minimum inhibitory concentration (MIC), E. coli (water)
  MIC: > 64 µg/mL
E. coli; read-out: Range of MIC, E. coli (Water)
  MIC: > 64 µg/mL
Staph.; MRSA, read-out: Range of MIC, Staph (Mouse Serum)
  MIC: 1 to 2 µg/mL (≈ 1.29 to 2.57 µM)
Staph.; MRSA, read-out: Range of MIC, Staph (Water)
  MIC: 2 to 4 µg/mL (≈ 2.57 to 5.14 µM)
Staph.; read-out: Minimum inhibitory concentration (MIC), Staph (Human Serum)
  MIC: 1 to 4 µg/mL (≈ 1.29 to 5.14 µM)
Staph.; read-out: Minimum inhibitory concentration (MIC), Staph (Water)
  MIC: 2 to 4 µg/mL (≈ 2.57 to 5.14 µM)
